From patent US8871933B2, “Purified pyrroloquinolinyl-pyrrolidine-2,5-dione compositions and methods for preparing and using same” (ArQule, Inc., priority 2009, dated 2014)

Key:
[1] = test system: human pancreatic cancer MIA PaCa2; assay: Human pancreatic cancer xenograft; format: in vivo; conditions: monotherapy
Experimental: The efficacy of (−)-trans-3-(5,6-dihydro-4H-pyrrolo[3,2,1-ij]quinolin-1-yl)-4-(1H-indol-3-yl)pyrrolidine-2,5-dione was also tested in xenograft models with several other cancer cell lines: human pancreatic cancer MIA PaCa2 (FIG. 9, Panel B), human prostate cancer PC3 (FIG. 9, Panel C) and human gastric cancer MKN45 (FIG. 9, Panel D). The cells were treated with (−)-trans-3-(5,6-dihydro-4H-pyrrolo[3,2,1-ij]quinolin-1-yl)-4-(1H-indol-3-yl)pyrrolidine-2,5-dione as a monotherapy at indicated concentrations.

[2] = test system: MDA-MB-231 human breast cancer cells; assay: Human breast cancer xenograft; format: in vivo, female athymic nude mice
Experimental: MDA-MB-231 human breast cancer cells were inoculated subcutaneously into female athymic nude mice (8.0×10^6 cells/mouse) and allowed to form palpable tumors. Once the tumors reached approximately 60 mm^3, the animals were treated orally with (−)-trans-3-(5,6-dihydro-4H-pyrrolo[3,2,1-ij]quinolin-1-yl)-4-(1H-indol-3-yl)pyrrolidine-2,5-dione at 200 mg/kg or vehicle control daily (5 consecutive days, followed by a 2 day dosing holiday). (−)-trans-3-(5,6-dihydro-4H-pyrrolo[3,2,1-ij]quinolin-1-yl)-4-(1H-indol-3-yl)pyrrolidine-2,5-dione was formulated in PEG 400:20% Vitamin E TPGS (60:40). The animals received a total of 20 doses of (−)-trans-3-(5,6-dihydro-4H-pyrrolo[3,2,1-ij]quinolin-1-yl)-4-(1H-indol-3-yl)pyrrolidine-2,5-dione or vehicle control. Tumors were measured throughout treatment and the post-treatment observation period. Each point represents the mean±SEM of ten tumors. (See, FIG. 8)

Flt4 = Flt4 (Homo sapiens, UniProt P35916); assay: Kinase panel inhibition, Flt4; format: biochemical
Experimental: (−)-trans-3-(5,6-dihydro-4H-pyrrolo[3,2,1-ij]quinolin-1-yl)-4-(1H-indol-3-yl)pyrrolidine-2,5-dione was assessed for its activity to inhibit a large panel (n=230) of human kinases.

Sequence of Flt4 (P35916 25-1363): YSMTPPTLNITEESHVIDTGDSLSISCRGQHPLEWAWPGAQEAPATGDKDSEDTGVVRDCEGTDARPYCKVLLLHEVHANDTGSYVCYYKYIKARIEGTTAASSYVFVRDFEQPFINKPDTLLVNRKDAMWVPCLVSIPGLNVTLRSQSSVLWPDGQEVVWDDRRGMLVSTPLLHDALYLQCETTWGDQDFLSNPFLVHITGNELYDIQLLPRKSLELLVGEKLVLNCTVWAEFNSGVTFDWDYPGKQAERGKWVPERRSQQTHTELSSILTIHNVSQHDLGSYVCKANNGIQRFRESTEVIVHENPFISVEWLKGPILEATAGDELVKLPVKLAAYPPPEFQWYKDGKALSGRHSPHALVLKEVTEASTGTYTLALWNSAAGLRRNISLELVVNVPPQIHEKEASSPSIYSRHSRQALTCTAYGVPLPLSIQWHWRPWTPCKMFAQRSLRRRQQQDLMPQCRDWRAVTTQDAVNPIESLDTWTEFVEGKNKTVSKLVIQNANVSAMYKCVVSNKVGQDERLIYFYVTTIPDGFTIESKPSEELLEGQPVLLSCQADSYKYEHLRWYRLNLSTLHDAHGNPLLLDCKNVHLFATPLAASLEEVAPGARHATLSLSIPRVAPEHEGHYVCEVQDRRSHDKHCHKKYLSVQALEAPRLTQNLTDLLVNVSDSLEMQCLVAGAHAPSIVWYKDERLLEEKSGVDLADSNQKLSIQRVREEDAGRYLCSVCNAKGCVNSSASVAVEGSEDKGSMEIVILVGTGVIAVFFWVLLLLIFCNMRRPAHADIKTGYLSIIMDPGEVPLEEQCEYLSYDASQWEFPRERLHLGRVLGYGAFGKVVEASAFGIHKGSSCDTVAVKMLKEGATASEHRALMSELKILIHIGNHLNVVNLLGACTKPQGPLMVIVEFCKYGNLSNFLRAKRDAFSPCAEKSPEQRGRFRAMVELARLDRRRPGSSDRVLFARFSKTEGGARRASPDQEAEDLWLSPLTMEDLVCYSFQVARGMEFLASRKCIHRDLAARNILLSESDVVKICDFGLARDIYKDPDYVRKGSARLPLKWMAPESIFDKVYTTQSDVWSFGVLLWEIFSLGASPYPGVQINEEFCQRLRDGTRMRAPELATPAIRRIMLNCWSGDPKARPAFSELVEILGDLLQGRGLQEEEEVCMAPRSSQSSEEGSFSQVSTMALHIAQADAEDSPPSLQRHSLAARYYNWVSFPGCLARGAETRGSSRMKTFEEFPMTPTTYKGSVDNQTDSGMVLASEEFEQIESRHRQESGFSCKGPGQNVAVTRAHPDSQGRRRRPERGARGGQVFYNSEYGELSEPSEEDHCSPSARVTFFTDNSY

IC50 (Flt4): ~16 µM
Structure (SMILES): O=C1NC(=O)[C@@H](c2cn3c4c(cccc24)CCC3)[C@@H]1c1c[nH]c2ccccc12 (single isomer, unassigned) [(−)-trans-3-(5,6-dihydro-4H-pyrrolo[3,2,1-ij]quinolin-1-yl)-4-(1H-indol-3-yl)pyrrolidine-2,5-dione]
tumor growth [1]: significantly inhibited tumor growth
Tumor growth inhibition ([2]; 200 mg/kg orally, daily 5 days on / 2 days off, 20 doses, p=0.009): 79%
change in body weight ([2]; oral administration at 200 mg/kg): no significant change in body weight
